Assay results as given in patent US20030139391A1 (priority 2000, published 2003).
Marks after values point to notes of the source that are not given here.

Key:
[1] = system: Patients diagnosed with Alzheimer's Disease; assay: ADCS/ADL scale in 5-month slow-titration trial; format: in vivo, human
Description: (§1) Subjects in the Placebo group received 21 weeks (5 months) of placebo medication.
The ADCS/ADL scale is a 23-item informant-based assessment scale measuring widely applicable daily activities appropriate for patients in the mild to moderate category of Alzheimer's Disease. The 23 items were selected for measurement from the larger set of 45 items studied by Galasko et al (Alzheimer Disease and Associated Disorders, Vol 11, Suppl. 2, 1997). These individual items were scored from 0-3 to […], depending on the question, with a possible total score of 78. A higher score indicated a higher functioning patient.
An additional secondary indication captures overall changes in Activities of daily Living (ADL) performances as measured by the Alzheimer's Disease Cooperative Study Activities of Daily Living (ACDS/ADL) scale. As mentioned above this scale is comprised of 23 items that have been tested and validated in patients with mild to moderately severe Alzheimer's disease.

[2] = in humans; cited from earlier work
patients [3] = assay: ADAS-cog in earlier study with quicker titration; format: in vivo, human; details: for ADAS-cog: Actual Drug Mean (SE): raw mean
Description: An improvement in tolerability at this dose was seen, but this dose was suboptimal from an efficacy standpoint.
Statistical analysis of the results of the ADAS-cog score is shown below in Table 7. […] This indicated a significant improvement of the patients' cognitive function at this dose level. The treatment with 36 mg/day in this study was terminated at an early point and thus there was insufficient information for a well defined comparison with the placebo.

patients [4] = assay: Side effects and dropout in earlier studies with shorter titration; format: in vivo, human; details: for Abdominal Pain: % / Abdominal Pain: number / Diarrhea: % / Diarrhea: number / Dyspepsia: % / Dyspepsia: number / Gastro-intestinal System Disorders, Adverse events: % / Gastro-intestinal System Disorders, Adverse events: number / Nausea: % / Nausea: number / Vomiting: % / Vomiting: number: shorter titration
Description: In contrast with earlier studies with a shorter titration of the drug the incidence of side effects, particularly gastro-intestinal system disorders, were […]. A example of this is shown below in Table 11.

[5] = system: Patients diagnosed with Alzheimer's Disease; assay: CIBIC-plus in 5-month slow-titration trial; format: in vivo, human
Description: as §1
The CIBIC-plus score was a second primary variable. An independent, experienced and properly trained clinician provided a global impression of the subject's deterioration or improvement over the course of the trial, based on separate interviews with the subject and caregivers. If helpful, the CIBIC rater audiotaped or videotaped the baseline interview for future reference.
The CIBIC-plus was performed at visit 2, 3, 4, and 5 (baseline, week 4, week 13, and month 5 or upon early discontinuation of trial medication intake). Only a trained CIBIC rater performed the test.
For ordinal categorical variables such as the CIBIC-plus score, the Van Elteren test controlling for investigator was used for the between group comparison. For the nominal data (e.g., events rates), the Cochran-Mantel-Haenszel test for general association controlling for investigator was used. A linear contrast on the proportion of patients that stay the same or improve was used to test for increasing response with increasing dose.

Structure (SMILES): COc1ccc2c3c1O[C@H]1C[C@@H](O)C=C[C@@]31CCN(C)C2 [GAL, galantamine]
- Change in Total ADL score from baseline at Month 5, Mean (SE) ([1]; LOCF, 8 mg/day): −3.2 (0.79)
- Change in Total ADL score from baseline at Month 5, Mean (SE) ([1]; LOCF, 24 mg/day): −1.5 (0.56)**
- Change in Total ADL score from baseline at Month 5, Mean (SE) ([1]; observed case, 8 mg/day): −3.1 (0.91)
- Change in Total ADL score from baseline at Month 5, Mean (SE) ([1]; observed case, 16 mg/day): −0.5 (0.55)***^†
- Change in Total ADL score from baseline at Month 5, Mean (SE) ([1]; observed case, 24 mg/day): −1.6 (0.61)**
- passing the blood-brain barrier [2]: capable of passing the blood-brain barrier
- ADAS-cog: Mean estimate GAL-Placebo Difference (patients [3]; 18 mg/day): −1.69
- ADAS-cog: Z, measure of advantage of galantamine over placebo (patients [3]; 18 mg/day): 9.9
- ADAS-cog: Actual Drug Mean (SE) (patients [3]; 18 mg/day): 0.5 (0.70)
- ADAS-cog: Mean estimate GAL-Placebo Difference (patients [3]; 24 mg/day): −3.34
- ADAS-cog: Z, measure of advantage of galantamine over placebo (patients [3]; 24 mg/day): 13.4
- ADAS-cog: Actual Drug Mean (SE) (patients [3]; 24 mg/day): 0.7 (0.9)
- ADAS-cog: Mean estimate GAL-Placebo Difference (patients [3]; 36 mg/day): −1.93
- ADAS-cog: Z, measure of advantage of galantamine over placebo (patients [3]; 36 mg/day): 7.8
- ADAS-cog: Actual Drug Mean (SE) (patients [3]; 36 mg/day): 1.1 (0.9)
- Abdominal Pain: % (patients [4]; 18 mg): 2.3%
- Abdominal Pain: number (patients [4]; 18 mg): 2
- Diarrhea: % (patients [4]; 18 mg): 2.3%
- Diarrhea: number (patients [4]; 18 mg): 2
- Dyspepsia: % (patients [4]; 18 mg): 5.7%
- Dyspepsia: number (patients [4]; 18 mg): 5
- Gastro-intestinal System Disorders, Adverse events: % (patients [4]; 18 mg): 31.8%
- Gastro-intestinal System Disorders, Adverse events: number (patients [4]; 18 mg): 28
- Nausea: % (patients [4]; 18 mg): 17.0%
- Nausea: number (patients [4]; 18 mg): 15
- Vomiting: % (patients [4]; 18 mg): 17.0%
- Vomiting: number (patients [4]; 18 mg): 15
- Abdominal Pain: % (patients [4]; 24 mg): 7.4%
- Abdominal Pain: number (patients [4]; 24 mg): 36
- Diarrhea: % (patients [4]; 24 mg): 9.6%
- Diarrhea: number (patients [4]; 24 mg): 47
- Dyspepsia: % (patients [4]; 24 mg): 4.3%
- Dyspepsia: number (patients [4]; 24 mg): 21
- Gastro-intestinal System Disorders, Adverse events: % (patients [4]; 24 mg): 49.0%
- Gastro-intestinal System Disorders, Adverse events: number (patients [4]; 24 mg): 239
- Nausea: % (patients [4]; 24 mg): 35.2%
- Nausea: number (patients [4]; 24 mg): 172
- Vomiting: % (patients [4]; 24 mg): 19.1%
- Vomiting: number (patients [4]; 24 mg): 93
- Abdominal Pain: % (patients [4]; 32 mg): 8.4%
- Abdominal Pain: number (patients [4]; 32 mg): 59
- Diarrhea: % (patients [4]; 32 mg): 12.9%
- Diarrhea: number (patients [4]; 32 mg): 91
- Dyspepsia: % (patients [4]; 32 mg): 4.5%
- Dyspepsia: number (patients [4]; 32 mg): 32
- Gastro-intestinal System Disorders, Adverse events: % (patients [4]; 32 mg): 55.8%
- Gastro-intestinal System Disorders, Adverse events: number (patients [4]; 32 mg): 393
- Nausea: % (patients [4]; 32 mg): 37.6%
- Nausea: number (patients [4]; 32 mg): 265
- Vomiting: % (patients [4]; 32 mg): 18.6%
- Vomiting: number (patients [4]; 32 mg): 131
- dropout rate due to cholinergic side effects (patients [4]; 36 mg daily in three doses, two week titration): 50%
- Abdominal Pain: % (patients [4]; 36 mg): 1.9%
- Abdominal Pain: number (patients [4]; 36 mg): 1
- Diarrhea: % (patients [4]; 36 mg): 3.7%
- Diarrhea: number (patients [4]; 36 mg): 2
- Dyspepsia: % (patients [4]; 36 mg): 0 (0%)
- Dyspepsia: number (patients [4]; 36 mg): 0 (0%)
- Gastro-intestinal System Disorders, Adverse events: % (patients [4]; 36 mg): 50.0%
- Gastro-intestinal System Disorders, Adverse events: number (patients [4]; 36 mg): 27
- Nausea: % (patients [4]; 36 mg): 37.0%
- Nausea: number (patients [4]; 36 mg): 20
- Vomiting: % (patients [4]; 36 mg): 16.7%
- Vomiting: number (patients [4]; 36 mg): 9
- Abdominal Pain: % (patients [4]; flexable dose): 1.9%
- Abdominal Pain: number (patients [4]; flexable dose): 18
- Diarrhea: % (patients [4]; flexable dose): 14.6%
- Diarrhea: number (patients [4]; flexable dose): 38
- Dyspepsia: % (patients [4]; flexable dose): 3.4%
- Dyspepsia: number (patients [4]; flexable dose): 9
- Gastro-intestinal System Disorders, Adverse events: % (patients [4]; flexable dose): 51.0%
- Gastro-intestinal System Disorders, Adverse events: number (patients [4]; flexable dose): 133
- Nausea: % (patients [4]; flexable dose): 32.2%
- Nausea: number (patients [4]; flexable dose): 84
- Vomiting: % (patients [4]; flexable dose): 14.6%
- Vomiting: number (patients [4]; flexable dose): 38
- CIBIC-plus at Month 5, Improved/no change: % ([5]; LOCF, 8 mg/day): 53%
- CIBIC-plus at Month 5, Improved/no change: n ([5]; LOCF, 8 mg/day): 68
- CIBIC-plus at Month 5, Improved/no change: % ([5]; LOCF, 16 mg/day): 66%
- CIBIC-plus at Month 5, Improved/no change: n ([5]; LOCF, 16 mg/day): 169
- CIBIC-plus at Month 5, Improved/no change: % ([5]; LOCF, 24 mg/day): 64%
- CIBIC-plus at Month 5, Improved/no change: n ([5]; LOCF, 24 mg/day): 162
- CIBIC-plus at Month 5, Improved/no change: % ([5]; observed case, 8 mg/day): 51%
- CIBIC-plus at Month 5, Improved/no change: n ([5]; observed case, 8 mg/day): 54
- CIBIC-plus at Month 5, Improved/no change: % ([5]; observed case, 16 mg/day): 68%
- CIBIC-plus at Month 5, Improved/no change: n ([5]; observed case, 16 mg/day): 143
- CIBIC-plus at Month 5, Improved/no change: % ([5]; observed case, 24 mg/day): 64%
- CIBIC-plus at Month 5, Improved/no change: n ([5]; observed case, 24 mg/day): 136
